Measured values: patent publication US12391687B2, “Five-and-six-membered heterocyclic compound and use thereof as protein receptor kinase inhibitor” (SHANGHAI ENNOVABIO PHARMACEUTICALS CO., LTD., priority 2018, dated 2025)

Columns and labels:
[1] = target: recombinant human TRKA (G595R) (Homo sapiens (Human), UniProt P04629, G595R); experiment: In vitro activity test on mutant TRKA (G595R) (HTRF kinEASE TK); assay type: biochemical; settings: 4.5 μM ATP, 30 min, room temperature; read-out: TRKA (G595R) IC 50
Sequence of recombinant human TRKA (G595R) (P04629 33-796 G595R): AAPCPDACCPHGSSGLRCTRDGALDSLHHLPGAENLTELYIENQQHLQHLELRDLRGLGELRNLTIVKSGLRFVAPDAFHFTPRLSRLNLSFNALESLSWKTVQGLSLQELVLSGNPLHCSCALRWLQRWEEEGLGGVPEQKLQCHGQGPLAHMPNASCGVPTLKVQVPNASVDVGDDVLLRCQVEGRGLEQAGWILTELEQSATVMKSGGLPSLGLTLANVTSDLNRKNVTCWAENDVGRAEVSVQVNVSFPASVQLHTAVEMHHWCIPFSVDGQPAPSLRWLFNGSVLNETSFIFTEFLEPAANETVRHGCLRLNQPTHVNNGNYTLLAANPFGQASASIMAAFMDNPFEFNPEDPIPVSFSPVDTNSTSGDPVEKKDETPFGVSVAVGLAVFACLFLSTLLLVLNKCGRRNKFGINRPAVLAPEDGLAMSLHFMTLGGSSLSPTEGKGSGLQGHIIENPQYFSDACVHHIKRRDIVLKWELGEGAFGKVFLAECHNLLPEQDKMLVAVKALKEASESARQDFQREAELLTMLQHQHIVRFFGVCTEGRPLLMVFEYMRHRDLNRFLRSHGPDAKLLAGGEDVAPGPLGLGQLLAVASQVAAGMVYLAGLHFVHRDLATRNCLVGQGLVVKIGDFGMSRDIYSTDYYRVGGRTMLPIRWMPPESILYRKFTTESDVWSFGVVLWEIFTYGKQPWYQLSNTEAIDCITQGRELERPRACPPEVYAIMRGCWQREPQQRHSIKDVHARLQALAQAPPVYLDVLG
Protocol: The recombinant human TRKA (G595R), TRKA (G667C) and TRKC (G623R) proteins were purchased from SignalChem. HTRF kinEASE TK kit was purchased from Cisbio Bioassays. Synergy Neo 2 of Biotek was used to read the plate.
The tested compounds were subjected to 4-fold serial dilution to reach a final concentration of 1 μM to 0.004 nM (10 concentrates), duplicates for each concentration; and the final concentration of DMSO in the reaction was 1%.
0.12 ng/μL TRKA (G595R) kinase, 1 μM TK Substrate-biotin polypeptide substrate, 4.5 μM ATP, 1× enzymatic buffer, 5 mM MgCl2, and 1 mM DTT. The assay plate was White Proxiplate384-Plus plate (PerkinElmer), and the reaction was incubated at room temperature for 30 min, and the assay volume was 10 μL.
10 μL of detection reagent (containing 0.125 μM SA-XL665 and 5 μL 1×TK-Antibody) was added to the plate and incubated overnight at room temperature, and Synergy Neo 2 was used to read the plate.
(§1) The value of 665/620 Ratio minus the value of negative control wells without enzyme, then the obtained value was converted according to the following formula into inhibition rate (%)=(1−Ratiotest/Ratiomax)×100%. Ratiomax was the value of positive controls without tested compound, and Ratiotest was the value of each concentration of different compounds. IC50 (nM) data was obtained by 4 parameter curve fitting (see Table 3).

[2] = target: Recombinant human TRKB (Homo sapiens (Human), UniProt Q16620); experiment: In vitro activity test on TRKB kinase (HTRF kinEASE TK); assay type: biochemical; settings: 4.77 μM ATP, 50 min, room temperature
Sequence of Recombinant human TRKB (Q16620 32-822): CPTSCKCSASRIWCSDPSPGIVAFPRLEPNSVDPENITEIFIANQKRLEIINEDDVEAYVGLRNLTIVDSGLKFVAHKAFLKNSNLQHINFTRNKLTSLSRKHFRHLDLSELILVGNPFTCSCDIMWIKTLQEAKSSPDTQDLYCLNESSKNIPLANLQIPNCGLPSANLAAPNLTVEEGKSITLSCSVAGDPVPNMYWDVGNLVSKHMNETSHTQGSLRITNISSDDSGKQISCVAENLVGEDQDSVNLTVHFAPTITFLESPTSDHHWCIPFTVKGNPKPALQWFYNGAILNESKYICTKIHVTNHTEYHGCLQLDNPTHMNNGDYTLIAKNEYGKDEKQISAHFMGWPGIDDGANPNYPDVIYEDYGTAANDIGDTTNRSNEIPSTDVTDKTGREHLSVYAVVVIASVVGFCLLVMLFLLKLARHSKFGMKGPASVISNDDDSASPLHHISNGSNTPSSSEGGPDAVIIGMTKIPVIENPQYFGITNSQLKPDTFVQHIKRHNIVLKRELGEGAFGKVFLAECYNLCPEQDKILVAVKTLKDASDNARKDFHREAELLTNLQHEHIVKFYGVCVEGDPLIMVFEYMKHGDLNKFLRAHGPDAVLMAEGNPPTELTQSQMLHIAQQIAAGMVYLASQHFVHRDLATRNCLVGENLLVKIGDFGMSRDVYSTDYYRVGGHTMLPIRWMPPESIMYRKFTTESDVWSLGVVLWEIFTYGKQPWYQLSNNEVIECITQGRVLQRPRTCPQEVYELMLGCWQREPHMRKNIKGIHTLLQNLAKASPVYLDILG
Protocol: (§2) Recombinant human TRKA, TRKB, TRKC proteins were purchased from Carna Biosciences. HTRF kinEASE TK kit was purchased from Cisbio Bioassays. Synergy Neo 2 of Biotek was used to read the plate.
(§3) The tested compounds were subjected to 3-fold serial dilution to reach a final concentration of 1 μM to 0.05 nM (10 concentrations), duplicates for each concentration; and the DMSO concentration in the detection reaction was 1%.
(§4) 0.037 ng/μL TRKB protein kinase, 1 μM TK Substrate-biotin polypeptide substrate, 4.77 μM ATP, 1× enzymatic buffer, 5 mM MgCl2, 1 mM MnCl2 and 1 mM DTT. The assay plate was White Proxiplate 384-Plus plate (PerkinElmer), the reaction was incubated at room temperature for 50 min, and the assay volume was 10 μL.
(§5) 10 μL of detection reagent (containing 0.125 μM SA-XL665 and 5 μL 1×TK-Antibody) was added to the plate and incubated overnight at room temperature. Synergy Neo 2 was used to read the plate.
as §1, with “The” for “The value of”, “Ratio” for “Ratio minus the value of negative control wells without enzyme, then the obtained value”, “1).” for “3).”

[3] = target: Recombinant human TRKC (Homo sapiens (Human), UniProt Q16288); experiment: In vitro activity test on TRKC kinase (HTRF kinEASE TK); assay type: biochemical; settings: 25.64 μM ATP, 40 min, room temperature
Sequence of Recombinant human TRKC (Q16288 32-839): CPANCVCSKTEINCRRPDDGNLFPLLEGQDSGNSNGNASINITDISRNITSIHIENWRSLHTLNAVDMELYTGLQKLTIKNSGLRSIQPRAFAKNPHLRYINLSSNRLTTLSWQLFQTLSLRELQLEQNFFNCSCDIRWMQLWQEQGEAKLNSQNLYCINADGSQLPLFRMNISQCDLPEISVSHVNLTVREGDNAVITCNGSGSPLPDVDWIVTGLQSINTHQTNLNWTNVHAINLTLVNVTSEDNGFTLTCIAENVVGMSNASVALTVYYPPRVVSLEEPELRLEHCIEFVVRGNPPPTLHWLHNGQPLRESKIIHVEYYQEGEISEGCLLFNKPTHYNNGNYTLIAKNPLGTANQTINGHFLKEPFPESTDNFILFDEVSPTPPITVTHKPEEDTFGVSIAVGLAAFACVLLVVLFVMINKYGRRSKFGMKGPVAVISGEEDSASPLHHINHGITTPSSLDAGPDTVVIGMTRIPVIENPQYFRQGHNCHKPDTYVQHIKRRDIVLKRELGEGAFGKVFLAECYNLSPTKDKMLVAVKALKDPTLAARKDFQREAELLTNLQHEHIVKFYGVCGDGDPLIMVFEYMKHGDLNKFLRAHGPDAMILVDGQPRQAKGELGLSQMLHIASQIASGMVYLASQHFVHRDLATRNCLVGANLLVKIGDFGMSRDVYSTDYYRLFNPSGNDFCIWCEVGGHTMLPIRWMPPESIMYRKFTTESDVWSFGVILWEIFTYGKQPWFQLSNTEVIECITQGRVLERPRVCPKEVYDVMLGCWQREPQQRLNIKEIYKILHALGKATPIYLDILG
Protocol: as §2, §3
as §4, with “ng/μL TRKC” for “ng/μL TRKB”, “substrate, 25.64” for “substrate, 4.77”, “MgCl2,” for “MgCl2, 1 mM MnCl2”, “The detection” for “The assay”, “for 40” for “for 50”
as §5
as §1, with “The” for “The value of”, “Ratio” for “Ratio minus the value of negative control wells without enzyme, then the obtained value”, “1).” for “3).”

[4] = tested on: KM12-LUC cells; experiment: KM12-LUC cell proliferation experiment (CellTiter-Glo); assay type: cell-based; settings: human colon cancer cell line with TPM3-NTRK1 fusion, 72 hours
Protocol: Human colon cancer cell line KM12-LUC (LUC, stably expressing Luciferase) expressing TPM3-NTRK1 fusion gene was used to evaluate cellular activity of the compounds. The TRK fusion gene in KM12-LUC cells makes the sustained activation of TRK and the downstream signaling pathways associated with cell proliferation such as MAPK-ERK, PI3K-AKT, etc independent of the stimulation of extracellular growth factor. […] The method was as follows: On the first day, the cells were seeded into 384-well plates at 2000 cells/well; on the second day, different concentrations of test compounds were added; and on the 5th day, CellTiter-Glo (Promega) was added to detect cell viability, and the cell proliferation inhibition rate at 72 hours was calculated. Statistical analysis was carried out by PRISM5 and the IC50 of the test compounds was calculated.

[5] = target: Recombinant human TRKA (Homo sapiens (Human), UniProt P04629); experiment: In vitro activity test on TRKA kinase (HTRF kinEASE TK); assay type: biochemical; settings: 14.68 μM ATP, 40 min, room temperature
Sequence of Recombinant human TRKA (P04629 33-796): as the sequence (P04629 33-796 G595R) above, with R563G counted along it
Protocol: as §2, §3
0.2 ng/μL TRKA protein kinase, 1 μM TK Substrate-biotin polypeptide substrate, 14.68 μM ATP, 1×enzymatic buffer, 5 mM MgCl2, and 1 mM DTT. The assay plate was White Proxiplate384-Plus plate (PerkinElmer), and the reaction was incubated at room temperature for 40 min, and the assay volume was 10 μL.
as §5
as §1, with “The” for “The value of”, “Ratio” for “Ratio minus the value of negative control wells without enzyme, then the obtained value”, “1).” for “3).”

Compound	IC50 [1] [nM]	IC50 [2] [nM]	IC50 [3] [nM]	IC50 [4] [nM]	IC50 [5] [nM]
NC(=O)c1cnc2[nH]nc(N3C[C@@H](F)C[C@@H]3c3cc(F)ccc3F)c2c1 [Example 5, 3-((2R,4S)-2-(2,5-difluorophenyl)-4-fluoropyrrolidin-1-yl)-1H-pyrazolo[3,4-b]pyridine-5-carboxamide]	< 10	< 10	< 10	< 10	< 10
Fc1ccc(F)c([C@H]2C[C@H](F)CN2c2n[nH]c3ncc(-c4cn[nH]c4)cc23)c1 [Example 20, 3-((2R,4S)-2-(2,5-difluorophenyl)-4-fluoropyrrolidin-1-yl)-5-(1H-pyrazol-4-yl)-1H-pyrazolo[3,4-b]pyridine]	< 1	< 1	< 1	< 10	< 1
Fc1ccc(F)c([C@H]2C[C@H](F)CN2c2n[nH]c3ncc(-c4cnn(C5CCNCC5)c4)cc23)c1 [Example 22, 3-((2R,4S)-2-(2,5-difluorophenyl)-4-fluoropyrrolidin-1-yl)-5-(1-(piperidin-4-yl)-1H-pyrazol-4-yl)-1H-pyrazolo[3,4-b]pyridine]	< 1	< 1	< 1	< 10	< 1
Fc1ccc(F)c([C@H]2C[C@H](F)CN2c2n[nH]c3ncc(-c4cnn([C@@H]5CCNC5)c4)cc23)c1 [Example 24, 3-((2R,4S)-2-(2,5-difluorophenyl)-4-fluoropyrrolidin-1-yl)-5-(1-((R)-pyrrolidin-3-yl)-1H-pyrazol-4-yl)-1H-pyrazolo[3,4-b]pyridine]	< 1	< 500	< 100	< 10	< 10
Fc1ccc(F)c([C@H]2C[C@H](F)CN2c2n[nH]c3ncc(-c4cnn([C@H]5CCNC5)c4)cc23)c1 [Example 25, 3-((2R,4S)-2-(2,5-difluorophenyl)-4-fluoropyrrolidin-1-yl)-5-(1-((S)-pyrrolidin-3-yl)-1H-pyrazol-4-yl)-1H-pyrazolo[3,4-b]pyridine]	< 1	< 1	< 1	< 10	< 1
CN1CC(n2cc(-c3cnc4[nH]nc(N5C[C@@H](F)C[C@@H]5c5cc(F)ccc5F)c4c3)cn2)C1 [Example 29, 3-((2R,4S)-2-(2,5-difluorophenyl)-4-fluoropyrrolidin-1-yl)-5-(1-(1-methylazetidin-3-yl)-1H-pyrazol-4-yl)-1H-pyrazolo[3,4-b]pyridine]	< 10	< 1	< 1	< 10	< 1
Fc1ccc(F)c([C@H]2C[C@H](F)CN2c2n[nH]c3ncc(-c4cnn(CC(F)F)c4)cc23)c1 [Example 30, 5-(1-(2,2-difluoroethyl)-1H-pyrazol-4-yl)-3-((2R,4S)-2-(2,5-difluorophenyl)-4-fluoropyrrolidin-1-yl)-1H-pyrazolo[3,4-b]pyridine]	< 1	< 1	< 1	< 10	< 1
Fc1ccc(F)c([C@H]2C[C@H](F)CN2c2n[nH]c3ncc(-c4cnn(COCc5ccccc5)c4)cc23)c1 [Example 31, 5-(1-((benzyloxy)methyl)-1H-pyrazol-4-yl)-3-((2R,4S)-2-(2,5-difluorophenyl)-4-fluoropyrrolidin-1-yl)-1H-pyrazolo[3,4-b]pyridine]	< 10	< 1	< 10	–	< 10
CC(C)(O)Cn1cc(-c2cnc3[nH]nc(N4C[C@@H](F)C[C@@H]4c4cc(F)ccc4F)c3c2)cn1 [Example 32, 1-(4-(3-((2R,4S)-2-(2,5-difluorophenyl)-4-fluoropyrrolidin-1-yl)-1H-pyrazolo[3,4-b]pyridin-5-yl)-1H-pyrazol-1-yl)-2-methylpropan-2-ol]	< 1	< 1	< 1	< 1	< 1
CN(C)CCn1cc(-c2cnc3[nH]nc(N4C[C@@H](F)C[C@@H]4c4cc(F)ccc4F)c3c2)cn1 [Example 33, 2-(4-(3-((2R,4S)-2-(2,5-difluorophenyl)-4-fluoropyrrolidin-1-yl)-1H-pyrazolo[3,4-b]pyridin-5-yl)-1H-pyrazol-1-yl)-N,N-dimethylethan-1-amine]	< 1	< 1	< 1	< 1	< 1
Fc1ccc(F)c([C@H]2C[C@H](F)CN2c2n[nH]c3ncc(-c4cnn(CC5CNC5)c4)cc23)c1 [Example 34, 5-(1-(azetidin-3-ylmethyl)-1H-pyrazol-4-yl)-3-((2R,4S)-2-(2,5-difluorophenyl)-4-fluoropyrrolidin-1-yl)-1H-pyrazolo[3,4-b]pyridine]	< 10	< 1	< 1	–	< 1
Fc1ccc(F)c([C@H]2C[C@H](F)CN2c2n[nH]c3ncc(-c4cnn(CC(F)(F)F)c4)cc23)c1 [Example 35, 3-((2R,4S)-2-(2,5-difluorophenyl)-4-fluoropyrrolidin-1-yl)-5-(1-(2,2,2-trifluoroethyl)-1H-pyrazol-4-yl)-1H-pyrazolo[3,4-b]pyridine]	< 1	< 1	< 1	< 10	< 1
Fc1ccc(F)c([C@H]2C[C@H](F)CN2c2n[nH]c3ncc(-c4ccn(CC(F)F)n4)cc23)c1 [Example 36, 5-(1-(2,2-difluoroethyl)-1H-pyrazol-3-yl)-3-((2R,4S)-2-(2,5-difluorophenyl)-4-fluoropyrrolidin-1-yl)-1H-pyrazolo[3,4-b]pyridine]	< 1	< 1	< 1	< 10	< 1
Cc1cn(CC(F)F)nc1-c1cnc2[nH]nc(N3C[C@@H](F)C[C@@H]3c3cc(F)ccc3F)c2c1 [Example 40, 5-(1-(2,2-difluoroethyl)-4-methyl-1H-pyrazol-3-yl)-3-((2R,4S)-2-(2,5-difluorophenyl)-4-fluoropyrrolidin-1-yl)-1H-pyrazolo[3,4-b]pyridine]	< 10	< 1	< 1	–	< 1
Fc1ccc(F)c([C@H]2C[C@H](F)CN2c2n[nH]c3ncc(-c4nnc(COC(F)(F)F)o4)cc23)c1 [Example 41, 2-(3-((2R,4S)-2-(2,5-difluorophenyl)-4-fluoropyrrolidin-1-yl)-1H-pyrazolo[3,4-b]pyridin-5-yl)-5-((trifluoromethoxy)methyl)-1,3,4-oxadiazole]	< 1	< 1	< 1	–	< 1
O=C(c1n[nH]c2nccc(N[C@@H]3CCC[C@H]3O)c12)N1C[C@@H](F)C[C@@H]1c1cc(F)ccc1F [Example 43, ((2R,4S)-2-(2,5-difluorophenyl)-4-fluoropyrrolidin-1-yl)(4-(((1R,2R)-2-hydroxycyclopentyl)amino)-1H-pyrazolo[3,4-b]pyridin-3-yl)methanone]	< 1	< 1	< 1	–	< 1
